# Results from paper PMC9223764, “In Vitro Selection and Characterization of HIV-1 Variants with Increased Resistance to LP-40, Enfuvirtide-Based Lipopeptide Inhibitor” (International Journal of Molecular Sciences, 2022).
# Where two headings read alike, the source gives them in different places. Where a SMILES comes first, the peptide text is derived from it. The star is where a group is joined. Palmitoyl = CCCCCCCCCCCCCCCC(=O)*
# Assays:
# [1] = system: HIV-1 NL4-3; assay: In vitro selection of resistant virus, dose-escalating passages in C8166 cells; assay type: cell-based; details: 1.5- to 2-fold increase per passage, start 0.5 µM T20, 0.04 µM LP-40
# Protocol: To determine the resistance profile of LP-40, LP-40-resistant variants were selected using a dose-escalating method. The selection for drug-resistant HIV-1NL4-3 commenced with a concentration of 0.04 µM LP-40 (Figure 2B). Finally, after 32 passages, the induced concentration of LP-40 reached 200 µM. […] As shown in passage 9 (P-9), the concentration of LP-40 was 0.3 µM, and it can be observed that isoleucine was replaced by threonine at position 37 in the gp41 NHR coding region (I37T). G86D and C87Y were observed; at position 119 (E 119 G) in the gp41 CHR coding region, glutamate was replaced by glycine; at position 126 (N 126 K), asparagine was replaced by lysine. In P-24, the concentration of LP-40 was 8 µM; I37T in the NHR coding region was still present, and A15V, A21T, and L57H were also present, and N126K at position 126 in the CHR coding region was still present. In P-26, the concentration of LP-40 was 20 µM; at L33S, position 33 in the NHR coding region, leucine was replaced by serine and I37T remained. Additionally, a combination of mutations—E109N, N113D, E119Q, D121E, N125E, S129D, H132Y, and S133N (abbreviated as […])—appeared in the coding region of CHR. At a concentration of 200 µM, in addition to L33S and I37T, D36G, V38A, V38T, N42T, and I69V appeared in the NHR coding region, and a combination of the above eight mutations still existed in the CHR coding region. […]
# [2] = system: HIV-1 NL4-3 gp41 I69V pseudovirus; assay type: cell-based; details: for Fold change in IC50: I69V relative to WT NL4-3
# [3] = system: NL4-3D36G virus; details: single infection inhibition experiment; cited from earlier work
# Protocol: However, it requires frequent and high doses (90 mg, twice a day), and resistance is easily acquired. The TRM of the T20 carboxy-terminal, also known as the MPER (membrane proximal external region), is rich in […] sequences ([…]). Therefore, it is highly hydrophobic (Figure 1).
smiles,measurement,setting,value
CCCCCCCCCCCCCCCC(=O)NCCCC[C@H](NC(=O)[C@H](CC(=O)O)NC(=O)[C@H](CC(C)C)NC(=O)[C@H](CCC(=O)O)NC(=O)[C@H](CC(C)C)NC(=O)[C@H](CC(C)C)NC(=O)[C@H](CCC(=O)O)NC(=O)[C@H](CCC(N)=O)NC(=O)[C@H](CCC(=O)O)NC(=O)[C@H](CC(N)=O)NC(=O)[C@H](CCCCN)NC(=O)[C@H](CCC(=O)O)NC(=O)[C@H](CCC(N)=O)NC(=O)[C@H](CCC(N)=O)NC(=O)[C@H](CC(N)=O)NC(=O)[C@H](CCC(N)=O)NC(=O)[C@H](CO)NC(=O)[C@H](CCC(=O)O)NC(=O)[C@H](CCC(=O)O)NC(=O)[C@@H](NC(=O)[C@H](CC(C)C)NC(=O)[C@H](CO)NC(=O)[C@H](Cc1c[nH]cn1)NC(=O)[C@@H](NC(=O)[C@H](CC(C)C)NC(=O)[C@H](CO)NC(=O)[C@@H](NC(=O)[C@H](Cc1ccc(O)cc1)NC(C)=O)[C@@H](C)O)[C@@H](C)CC)[C@@H](C)CC)C(N)=O [LP-40] (Ac-YTSLIHSLIEESQNQQEKNEQELLELDK(Palmitoyl)-NH2),Induced inhibitor concentration reached after 32 passages,[1],200 µM
same,Fold change in IC50,[2]; Table 2,0.93 fold
same,Fold change in IC50,[2]; Table 3,1.08 fold
same,IC50,"[2]; I69V, Table 2, TZM-bl cells, 48 h, luciferase, mean ± SD, triplicate, repeated three times",29.4 ± 4.59 nM
same,Improvement of antiviral IC50 compared to T20,[3],approximately seven-fold
